Measurements: patent US10023591B2, “Heterocyclic derivatives and use thereof” (C&C RESEARCH LABORATORIES, priority 2014, dated 2018)

Legend:
[1] = tested on: STAT3; assay: STAT3 reporter gene assay (luciferase), LNCaP stable cell line pSTAT3-TA-luc, IL-6 stimulation; assay type: cell-based, human; conditions: Homo sapiens
Method: 1-1) Experiment on the Inhibition of STAT3 Activity
A human prostate cancer cell line (LNCaP stable cell line; plasmid pSTAT3-TA-luc), which contains a stably operating STAT3 promoter, was cultured in RPMI1640 medium (Cat No. 11875, Life Technologies) containing 10% fetal bovine serum (FBS) (Cat No. SH30396, Thermo Scientific) and 150 μg/mL G-418 solution (Cat No. 04 727 894 001, Roche). The reporter gene assay using LNCaP stable cell line was performed in RPMI1640 medium containing 3% DCC-FBS without G-418 solution. LNCaP stable cells were plated in two (2) white 96-well plates with 30,000 cells/50 μL in each well. The cells were cultured at 37° C., under 5% CO2 for 24 hours, and then treated with the compounds listed in Examples which were diluted in various concentrations. Subsequently, IL-6 was added to each well with a final concentration of 10 ng/mL. Upon completion of the treatment with the compounds and IL-6, the cells were cultured at 37° C., under 5% CO2 for 24 hours. The plates were observed under microscope and drug precipitation and particular findings were investigated and recorded.
(§1) The luciferase assay and the cell viability assay were performed respectively with one of the two plates. For the luciferase assay, the liquid media in the 96-well plate was removed, and then, 20 μL, of passive cell lysis buffer was added to each well. After shaking the plate for 30 minutes, luciferase activities of each well were measured in a PHERAstar™ microplate reader (BMG LABTECH) using a luciferase assay system (Cat No. E1501, Promega). For the cell viability assay, the 96-well plate was placed at room temperature for 30 minutes, added with 20 μL/well of CellTiter-Glo solution (Cat No. G7573, Promega), and shaken for 10 minutes in order to measure cytotoxicity caused by the compounds listed in Examples with a PHERAstar™ microplate reader (BMG LABTECH). Wells without 0.1% DMSO and stimulation were used as a negative control and wells with 0.1% DMSO and stimulation were used as a positive control.
(§2) The results of evaluation on the inhibitory effect of the compounds listed in the Examples on the dimerization of STAT3 and STAT1 obtained via the STAT3 and STAT1 reporter gene assays are shown in Table 9 below.

[2] = tested on: NCI-N87 stomach cancer cell line; assay: Cell growth inhibition assay, NCI-N87 (CellTiter-Glo); assay type: cell-based; conditions: Homo sapiens; NCI-N87, 5,000 cells/well, 96 hours
Method: The inhibitory effects of the compounds of the present invention against the growth of cancer cells were evaluated as shown below. The cancer cell lines including prostate cancer cell lines (LNCaP, DU-145), stomach cancer cell line (NCI-N87), and breast cancer cell lines (MDA-MB-468) were cultured under the protocol provided by each supplier. A medium supplemented with 10 ng/mL of IL-6 was used for LNCaP, a prostate cancer cell line, when treated with a drug. Each type of cells to be used in experiments was sub-cultured in a 96-well plate by counting the exact number of cells using Tali™ Image-based Cytometer (Life Technologies). In a 96-well plate, DU-145 was employed with 3,000 cells/well; NCI-N87 was employed with 5,000 cells/well; and LNCaP and MDA-MB-468 were employed with 10,000 cells/well. The cells were treated with the compounds listed in Examples which were diluted in various concentrations. Upon completion of the compounds treatment, LNCaP, DU-145, NCI-N87 cells were cultured at 37° C. under 5% CO2 for 96 hours, and MDA-MB-468 cells were cultured at 37° C. in air for 96 hours. Subsequently, the cells were observed under microscope and drug precipitation and particular findings were investigated and recorded. And then, the 96-well plate was placed at room temperature for 30 minutes, added with 20 pt/well of CellTiter-Glo solution (Cat No. G7573, Promega) and shaken for 10 minutes, followed by being subjected to the measurement using PHERAstar™ microplate reader (BMG LABTECH) according to the supplier's general luminometer protocol. Wells where only culture liquid added without cell plating were used as a negative control, whereas wells where culture liquid containing 0.1% DMSO instead of the compounds listed in Examples were used as a positive control.

[3] = tested on: STAT1; assay: STAT1 reporter gene assay (luciferase), U2OS stable cell line pGL4-STAT1-TA-luc, IFN-γ stimulation; assay type: cell-based, human; conditions: Homo sapiens, IFN-γ 50 ng/mL, 8 hours, read-out: IC50 (μM) pSTAT1
Method: 1-2) Experiment on the Inhibition of STAT1 Activity
A human osteosarcoma cell line (U2OS stable cell line; pGL4-STAT1-TA-luc), which contains a stably operating STAT1 promoter, was cultured in McCoy 5′A medium (Cat No. 16600, Life Technologies) containing 10% FBS (Cat No. SH30396, Thermo Scientific) and 1000 μg/mL G418 solution (Cat No. 04 727 894 001, Roche). The reporter gene assay using U2OS stable cell line was performed in McCoy 5′A medium containing 10% FBS without G-418 solution. U2OS stable cells were plated in two (2) white 96-well plates with 25,000 cells/50 pt in each well. The cells were cultured at 37° C., under 5% CO2 for 24 hours, and then treated with the compounds listed in Examples which were diluted in various concentrations. Subsequently, IFN-γ was added to each well with a final concentration of 50 ng/mL. Upon completion of the treatment with the compounds and IFN-γ, the cells were cultured at 37° C., under 5% CO2 for 8 hours. The plates were observed under microscope and drug precipitation and particular findings were investigated and recorded.
as §1, with “of” for “of the”, “μL” for “μL,”
as §2

IC50 [1] [µM]	IC50 [2] [µM]	IC50 [3] [µM]	Compound
0.085	0.13	> 50	CC(C)(c1ccc2sc(C(=O)Nc3cc(Cl)nc(N4CCC5CCCCC5C4)c3)cc2c1)S(C)(=O)=O (centres unmarked) [Example 108, N-(2-chloro-6-(octahydroisoquinolin-2(1H)-yl)pyridin-4-yl)-5-(2-(methylsulfonyl)propan-2-yl)benzo[b]thiophene-2-carboxamide]
0.063	0.13	> 50	Cc1cc(Oc2cc(NC(=O)c3cc4cc(C(C)(C)S(C)(=O)=O)ccc4s3)cc(Cl)n2)cs1 [Example 114, N-(2-chloro-6-((5-methylthiophen-3-yl)oxy)pyridin-4-yl)-5-(2-(methylsulfonyl)propan-2-yl)benzo[b]thiophene-2-carboxamide]
0.049	0.087	> 50	CC(C)(C)C1CCN(c2cc(NC(=O)c3cc4cc(C(C)(C)S(C)(=O)=O)ccc4s3)cc(Cl)n2)CC1 [Example 105, N-(2-(4-(tert-butyl)piperidin-1-yl)-6-chloropyridin-4-yl)-5-(2-(methylsulfonyl)propan-2-yl)benzo[b]thiophene-2-carboxamide]
0.0093	0.068	> 50	CC(C)(c1ccc2sc(C(=O)Nc3cc(Cl)nc(OC4CC=C(Cl)CC4)c3)cc2c1)S(C)(=O)=O (centres unmarked) [Example 101, N-(2-chloro-6-((4-chlorocyclohex-3-en-1-yl)oxy)pyridin-4-yl)-5-(2-(methylsulfonyl)propan-2-yl)benzo[b]thiophene-2-carboxamide]
0.024	0.057	> 50	COc1cc(Cl)cc(Oc2cc(NC(=O)c3cc4cc(C(C)(C)S(C)(=O)=O)ccc4s3)cc(Cl)n2)c1 [Example 70, N-(2-chloro-6-(3-chloro-5-methoxyphenoxy)pyridin-4-yl)-5-(2-(methylsulfonyl)propan-2-yl)benzo[b]thiophene-2-carboxamide]
0.01	0.076	> 50	Cc1csc(C(C)(C)c2cc(Cl)cc(NC(=O)c3cc4cc(C(C)(C)S(C)(=O)=O)ccc4s3)c2)c1 [Example 32, N-(3-chloro-5-(2-(4-methylthiophen-2-yl)propan-2-yl)phenyl)-5-(2-(methylsulfonyl)propan-2-yl)benzo[b]thiophene-2-carboxamide]
0.24		> 50	CC(C)(c1ccc2sc(C(=O)Nc3cc(Oc4ccc(Cl)cc4)nc(Cl)n3)cc2c1)S(C)(=O)=O [Example 75, N-(2-chloro-6-(4-chlorophenoxy)pyrimidin-4-yl)-5-(2-(methylsulfonyl)propan-2-yl)benzo[b]thiophene-2-carboxamide]
0.39		3.1	CC(C)(c1ccc2sc(C(=O)Nc3cc(Cl)nc(Oc4ccc(Cl)cc4)n3)cc2c1)S(C)(=O)=O [Example 76, N-(6-chloro-2-(4-chlorophenoxy)pyrimidin-4-yl)-5-(2-(methylsulfonyl)propan-2-yl)benzo[b]thiophene-2-carboxamide]
0.08		> 50	CC(C)(c1ccc2sc(C(=O)Nc3cc(Cl)cc(Oc4ccc(Cl)cn4)c3)cc2c1)S(C)(=O)=O [Example 61, N-(3-chloro-5-((5-chloropyridin-2-yl)oxy)phenyl)-5-(2-(methylsulfonyl)propan-2-yl)benzo[b]thiophene-2-carboxamide]
0.011		> 50	COc1cc(OC(F)(F)F)cc(C(C)(C)c2cc(NC(=O)c3cc4cc(C(C)(C)S(C)(=O)=O)ccc4s3)cc(Cl)n2)c1 [Example 90, N-(2-chloro-6-(2-(3-methoxy-5-(trifluoromethoxy)phenyl)propan-2-yl)pyridin-4-yl)-5-(2-(methylsulfonyl)propan-2-yl)benzo[b]thiophene-2-carboxamide]
0.067		> 50	CC(C)(c1ccc(F)cc1)c1cc(Br)cc(NC(=O)c2cc3cc(C(C)(C)S(C)(=O)=O)ccc3s2)c1 [Example 20, N-(3-bromo-5-(2-(4-fluorophenyl)propan-2-yl)phenyl)-5-(2-(methylsulfonyl)propan-2-yl)benzo[b]thiophene-2-carboxamide]
0.21		> 50	CC(C)(c1ccc2cc(C(=O)Nc3cc(Cl)cc(Oc4ccc(Cl)cc4)c3)[nH]c2c1)S(C)(=O)=O [Example 40, N-(3-chloro-5-(4-chlorophenoxy)phenyl)-6-(2-(methylsulfonyl)propan-2-yl)-1H-indole-2-carboxamide]
0.0051		> 50	COc1cc(OC(F)(F)F)cc(C(C)(C)c2cc(Cl)cc(NC(=O)c3cc4cc(C(C)(C)S(C)(=O)=O)ccc4s3)n2)c1 [Example 91, N-(4-chloro-6-(2-(3-methoxy-5-(trifluoromethoxy)phenyl)propan-2-yl)pyridin-2-yl)-5-(2-(methylsulfonyl)propan-2-yl)benzo[b]thiophene-2-carboxamide]
0.078		> 50	CC(C)(c1cc2cc(C(=O)Nc3cc(Cl)cc(Oc4ccc(Cl)cc4)c3)sc2cn1)S(C)(=O)=O [Example 50, N-(3-chloro-5-(4-chlorophenoxy)phenyl)-5-(2-(methylsulfonyl)propan-2-yl)thieno[2,3-c]pyridine-2-carboxamide]
0.11		> 50	CC(C)(c1ccc2sc(C(=O)Nc3cc(Cl)nc(Oc4ccc(Cl)cn4)c3)cc2c1)S(C)(=O)=O [Example 85, N-(2-chloro-6-((5-chloropyridin-2-yl)oxy)pyridin-4-yl)-5-(2-(methylsulfonyl)propan-2-yl)benzo[b]thiophene-2-carboxamide]
0.019		> 50	COc1cc(NC(=O)c2cc3cc(C(C)(C)S(C)(=O)=O)ccc3s2)cc(C(C)(C)c2cc(OC)cc(OC(F)(F)F)c2)c1 [Example 6, N-(3-methoxy-5-(2-(3-methoxy-5-(trifluoromethoxy)phenyl)propan-2-yl)phenyl)-5-(2-(methylsulfonyl)propan-2-yl)benzo[b]thiophene-2-carboxamide]
